Data on 2 compounds can be found in US20240148776A1, “TUMESCENT SOLUTION WITH B VITAMINS” (priority 2022, published 2024).

The test system of series [1] is acute Herpes zoster (shingles). The following applies: cited from earlier work.
Series [2] relates to postherpetic neuralgia (PHN). Kind of series: Tumescent treatment of patients with established postherpetic neuralgia (PHN). The following applies: B12 added to TEL[AT] in acute zoster. The series is classed as in vivo, human. From the text:
“Hotspot pain” is the area within the dermatome where the zoster pain is clearly the most intense. […] “Elsewhere pain” is zoster pain that affects areas within the dermatome other than the hotspot.

Series [3] in a line: Stability of vitamin B12 for injection and of its pink colour. Type of series: physicochemical. As for the experimental part:
When Klein placed a purchase order for their first vial of injectable B12, they had no idea that the solution would have a red/pink color. When 10 mg in 10 ml of B12 was added to 1,000 ml of TELTA (1:100 dilution of B12), the result was a TELTAB solution with a distinctive pink color. […] They thought the novel pink color would be memorable and an interesting topic of conversation. […] The next conceptual step was the idea that the pink color of TELTAB might be a clever marketing gimmick, which could distinguish TELTAB from all other bags of saline.

Regarding `Cc1ncc(C[n+]2csc(CCO)c2C)c(N)n1` [Undiluted vitamin B1, Thiamine], the “reduction of zoster-related intensely painful itching compared to placebo” value in series [1] (2-week protocol of multiple daily injections) is 30%.
As for Cobalamin [B12], the “incidence of PHN” value in series [2] is “reduced the incidence of PHN”. Also, the “effect on pain of acute Herpes zoster compared to placebo” value in series [1] (B12 1 mg/ml, 2 weeks) is “gradually reduce the pain of acute Herpes zoster”. In addition, the “stability of pink pigment over time” value in series [3] is given as “does not appear to fade over time”. Besides, in series [3] (light), the “stability of nutritional function on exposure to light” value is reported as “not stable when exposed to light”.
